Data published in patent US20150361184A1, “METHODS OF MODULATING DLK STABILITY” (GENENTECH, INC., priority 2013, published 2015).
Peptide text beside a SMILES is read from it. * marks the point of attachment. Cbz = O=C(OCc1ccccc1)*

Tests used:
DLK [1] = experiment: Western blot for DLK in unstressed embryonic DRG neurons cultured with NGF, treated for three hours; assay type: cell-based, mouse; conditions: DRGs +NGF, 3 hours; OA 200 nM, MG132 30 μM
Description: (§1) Dorsal root ganglia were dissected from E12.5 to E13.5 mouse embryos, trypsinized (except in the case of explants), and cultured in F12 medium containing N3 supplement, 40 mM glucose, and 25 ng/mL NGF on chamber slides coated with poly-d-lysine and laminin (BioCoat, BD). The day after plating, 3 μM arabinofuranoside (AraC, Sigma) was added to the medium, removed two days later, and the medium was replaced with N3/F12/NGF without AraC. For NGF withdrawal experiments, after 4 to 5 days in vitro, medium was replaced with medium containing no NGF and 25 μg/mL anti-NGF antibody (Genentech) for between 1 and 3 hours.
DRG cultures were lysed by incubation on ice for 30 min. in buffer containing 50 mM Tris pH 7.5, 150 mM NaCl, 5 mM EDTA, and 0.1% Triton X-100. HEK 293T cells were lysed by incubation on ice for 30 min. in radioimmunoprecipitation assay (RIPA) buffer. Retina and nerve tissue samples were lysed in RIPA buffer using a TissueLyser (Qiagen) with a 3 mm tungsten carbide bead (Qiagen) for 6 min. Unless otherwise noted, all lysis solutions contained Complete protease inhibitor cocktail and PhosSTOP phosphatase inhibitor cocktail (Roche). Protein concentrations of 293T and retina lysates were determined by BCA assay (Pierce). Samples were loaded on NuPAGE 4-12% Bis-Tris gels (Invitrogen) and subjected to standard immunoblotting procedures. Except where noted, gels blotted for DLK were run in MOPS buffer (Invitrogen). Due to the large size of Phr1, samples blotted for Phr1 were run on 3-8% Tris-Acetate gels (Invitrogen). Blots were visualized with chemiluminescence and exposure to film. For relative protein expression and molecular weight quantifications, blots were also visualized on a Chemidoc (Bio-Rad). Quantifications were performed in ImageLab (Bio-Rad). Protein expression was standardized to a loading control (actin or tubulin). Molecular weight was standardized to Precision Plus Protein WesternC Standards (Bio-Rad).

DLK [2] = experiment: JNK3 siRNA knockdown in JNK2 knockout DRGs with NGF withdrawal, blot for DLK; assay type: cell-based, mouse; conditions: JNK2 KO embryonic DRGs, compared to control siRNA
Description: as §1
For siRNA experiments, dissociated DRGs were transfected using the Amaxa nucleofection system (Lonza). JNK3 siRNA (sense 5′-ACATCGTAGTCAAGTCTGATTT-3′ (SEQ ID NO:10), antisense 5′-ATCAGACTTGACTACGATGTTT (SEQ ID NO:11)) was synthesized at Genentech (Kim, M. J. et al. Neuron 56, 488-502 (2007)). Control siRNA was ON-TARGETplus Non-targeting siRNA #1 from Dharmacon.
DRG cultures were lysed by incubation on ice for 30 min. in buffer containing 50 mM Tris pH 7.5, 150 mM NaCl, 5 mM EDTA, and 0.1% Triton X-100. […] Protein concentrations of 293T and retina lysates were determined by BCA assay (Pierce). […] For relative protein expression and molecular weight quantifications, blots were also visualized on a Chemidoc (Bio-Rad). Quantifications were performed in ImageLab (Bio-Rad). […]

DLK [3] = experiment: DLK expression in stable cell line with dox-inducible DLK construct treated with JNK inhibitors; assay type: cell-based; conditions: inhibitors at 10 μM
Description: HEK 293T cells were lysed by incubation on ice for 30 min. in radioimmunoprecipitation assay (RIPA) buffer. […] Unless otherwise noted, all lysis solutions contained Complete protease inhibitor cocktail and PhosSTOP phosphatase inhibitor cocktail (Roche). Protein concentrations of 293T and retina lysates were determined by BCA assay (Pierce). Samples were loaded on NuPAGE 4-12% Bis-Tris gels (Invitrogen) and subjected to standard immunoblotting procedures. Except where noted, gels blotted for DLK were run in MOPS buffer (Invitrogen). […] Blots were visualized with chemiluminescence and exposure to film. For relative protein expression and molecular weight quantifications, blots were also visualized on a Chemidoc (Bio-Rad). Quantifications were performed in ImageLab (Bio-Rad). Protein expression was standardized to a loading control (actin or tubulin). Molecular weight was standardized to Precision Plus Protein WesternC Standards (Bio-Rad).
A stable cell line that expressed DLK in a doxicyclin-inducible fashion was used and cells were treated with two structurally distinct JNK inhibitors (FIG. 4c).

murine DLK = experiment: SILAC mass spectrometry of DLK phosphorylation sites in 293T cells expressing Flag-tagged DLK; assay type: cell-based, mouse; conditions: WT DLK, okadaic acid 200 nM
Description: To identify functionally relevant phosphorylation sites on DLK, mass spectrometry in conjunction with stable isotope labeling by amino acids in cell culture (SILAC) was used. For these studies, 293T cells expressing FLAG-tagged DLK were cultured in SILAC media containing isotopically enriched (Heavy) versions of lysine (^13C6^15N2) and arginine (^13C6^15N4) or their unlabeled counterparts (Light). Four paired conditions (Light vs. Heavy) were established to dissect the effects of JNK and DLK activities on the overall abundance of DLK and the extent of DLK phosphorylation: 1) Wild-type (WT) DLK vs. DLK^S302A, 2) DLK^S302A vs. DLK^S302A co-expressed with a constitutively active JNK construct (Lei, K. et al. Molecular and cellular biology 22, 4929-4942 (2002)), 3) WT DLK vs. WT DLK with JNK inhibitor, and 4) WT DLK vs. WT DLK with okadaic acid (FIG. 5a).

Compound | apparent molecular weight / phosphorylation of DLK (DLK [1]) | total levels of DLK protein (DLK [1]) | increase in DLK quantity with NGF withdrawal (DLK [2]) | DLK expression (levels of DLK protein) (DLK [3]) | fold change in phosphorylation of T43, okadaic-acid-treated vs untreated cells expressing DLK (murine DLK)
CC(C)C[C@@H](C=O)NC(=O)[C@H](CC(C)C)NC(=O)[C@H](CC(C)C)NC(=O)OCc1ccccc1 [MG132] (Cbz-Leu-Leu-Leu-aldehyde) | without an increase in DLK phosphorylation | produced an increase in DLK levels | – | – | –
JNK3 siRNA: siRNA, sense 5′-ACATCGTAGTCAAGTCTGATTT-3′ (SEQ ID NO:10), antisense SEQ ID NO:11, synthesized at Genentech (sense ACATCGTAGTCAAGTCTGATTT; antisense ATCAGACTTGACTACGATGTTT; listed as DNA, chemistry not given here) | – | – | attenuated the increase in DLK | – | –
JNK Inhibitor VII (TAT-TI-JIP153-163) [JNK7] | – | – | – | reduces DLK expression | –
C=C1[C@@H](O)[C@@H]2O[C@]3(CC[C@H](/C=C/[C@@H](C)[C@@H]4CC(C)=C[C@@]5(O[C@H](C[C@@](C)(O)C(=O)O)CC[C@H]5O)O4)O3)CC[C@H]2O[C@@H]1[C@@H](O)C[C@H](C)[C@H]1O[C@@]2(CCCCO2)CC[C@H]1C [okadaic acid] | sufficient to increase both the apparent molecular weight and total levels of DLK | sufficient to increase both the apparent molecular weight and total levels of DLK | – | – | 7.78 fold
